Results published in US10577353B2, “5-(n-[6,5]-fused bicyclic aryl tetrahydroisoquinolin-6-yl) pyridin-3-yl acetic acid derivatives as inhibitors of human immunodeficiency virus replication” (priority 2015, dated 2020).
pEC50: −log10 of the molar value.

What follows are compounds tested on recombinant NL-RLuc virus (NL4-3 derived HIV) (assay: Inhibition of HIV replication (NL-RLuc virus in MT-2 cells, luciferase readout)). Conditions: Human immunodeficiency virus 1, NL43, MT2, 120 h.
Assay type: cell-based
Excerpt: Inhibition of HIV Replication:
A recombinant NL-RLuc proviral clone was constructed in which a section of the nef gene from NL4-3 was replaced with the Renilla Luciferase gene. This virus is fully infectious and can undergo multiple cycles of replication in cell culture. In addition, the luciferous reporter provides a simple and easy method for quantitating the extent of virus growth and consequently, the antiviral activity of test compounds. The plasmid pNLRLuc contains the proviral NL-Rluc DNA cloned into pUC 18 at the PvuII site. The NL-RLuc virus was prepared by transfection of 293T cells with the plasmid pNLRLuc. Transfections were performed using the LipofectAMINE PLUS kit from Invitrogen (Carlsbad, Calif.) according to the manufacturer and the virus generated was titered in MT-2 cells. For susceptibility analyses, the titrated virus was used to infect MT-2 cells in the presence of compound, and after 5 days of incubation, cells were processed and quantitated for virus growth by the amount of expressed luciferase. Assay media was RPMI 1640 supplemented with 10% heat inactivated fetal bovine serum (FBS), 100 units/ml penicillin G/100 units/ml streptomycin, 10 mM HEPES buffer pH 7.55 and 2 mM L-glutamine. The results from at least 2 experiments were used to calculate the EC50 values. Luciferase was quantitated using the Dual Luciferase kit from Promega (Madison, Wis.). Susceptibility of viruses to compounds was determined by incubation in the presence of serial dilutions of the compound. The 50% effective concentration (EC50) was calculated by using the exponential form of the median effect equation where (Fa)=1/[1+(ED50/drug conc.)^m] (Johnson V A, Byington R T. Infectivity Assay. In Techniques in HIV Research. ed. Aldovini A, Walker B D. 71-76. New York: Stockton Press. 1990).
For `Cc1nc(C)c([C@H](OC(C)(C)C)C(=O)O)c(N2CCC(C)(C)CC2)c1-c1ccc2c(c1)CCN(c1nc3ncc(C(F)(F)F)cc3s1)C2` [Compound 1, (S)-2-(tert-butoxy)-2-(4-(4,4-dimethylpiperidin-1-yl)-2,6-dimethyl-5-(2-(6-(trifluoromethyl)thiazolo[4,5-b]pyridin-2-yl)-1,2,3,4-tetrahydroisoquinolin-6-yl)pyridin-3-yl)acetic acid], the pEC50 was 8.52. `Cc1nc(C)c([C@H](OC(C)(C)C)C(=O)O)c(N2CCC(C)(C)CC2)c1-c1ccc2c(c1)CCN(c1nc3cccnc3s1)C2` [Compound 2, (S)-2-(tert-butoxy)-2-(4-(4,4-dimethylpiperidin-1-yl)-2,6-dimethyl-5-(2-(thiazolo[5,4-b]pyridin-2-yl)-1,2,3,4-tetrahydroisoquinolin-6-yl)pyridin-3-yl)acetic acid] gave a pEC50 of 9.00. In the case of `Cc1nc(C)c([C@H](OC(C)(C)C)C(=O)O)c(N2CCC(C)(C)CC2)c1-c1ccc2c(c1)CCN(c1nc3c(Cl)cncc3s1)C2` [Compound 3, (S)-2-(tert-butoxy)-2-(5-(2-(7-chlorothiazolo[5,4-c]pyridin-2-yl)-1,2,3,4-tetrahydroisoquinolin-6-yl)-4-(4,4-dimethylpiperidin-1-yl)-2,6-dimethylpyridin-3-yl)acetic acid], the pEC50 was 9.00. With `Cc1nc(C)c([C@H](OC(C)(C)C)C(=O)O)c(N2CCC(C)(C)CC2)c1-c1ccc2c(c1)CCN(c1nc3ccc(Cl)cc3s1)C2` [Compound 4, (S)-2-(tert-butoxy)-2-(5-(2-(6-chlorobenzo[d]thiazol-2-yl)-1,2,3,4-tetrahydroisoquinolin-6-yl)-4-(4,4-dimethylpiperidin-1-yl)-2,6-dimethylpyridin-3-yl)acetic acid] the pEC50 was 7.72. `Cc1nc(C)c([C@H](OC(C)(C)C)C(=O)O)c(N2CCC(C)(C)CC2)c1-c1ccc2c(c1)CCN(c1nc3cc(Cl)c(Cl)cc3s1)C2` [Compound 5, (S)-2-(tert-butoxy)-2-(5-(2-(5,6-dichlorobenzo[d]thiazol-2-yl)-1,2,3,4-tetrahydroisoquinolin-6-yl)-4-(4,4-dimethylpiperidin-1-yl)-2,6-dimethylpyridin-3-yl)acetic acid] gave a pEC50 of 7.92. In the case of `Cc1ccc2sc(N3CCc4cc(-c5c(C)nc(C)c([C@H](OC(C)(C)C)C(=O)O)c5N5CCC(C)(C)CC5)ccc4C3)nc2c1` [Compound 6, (S)-2-(tert-butoxy)-2-(4-(4,4-dimethylpiperidin-1-yl)-2,6-dimethyl-5-(2-(5-methylbenzo[d]thiazol-2-yl)-1,2,3,4-tetrahydroisoquinolin-6-yl)pyridin-3-yl)acetic acid], the pEC50 was 7.66. `Cc1nc(C)c([C@H](OC(C)(C)C)C(=O)O)c(N2CCC(C)(C)CC2)c1-c1ccc2c(c1)CCN(c1nc3c(Cl)cccc3s1)C2` [Compound 7, (S)-2-(tert-butoxy)-2-(5-(2-(4-chlorobenzo[d]thiazol-2-yl)-1,2,3,4-tetrahydroisoquinolin-6-yl)-4-(4,4-dimethylpiperidin-1-yl)-2,6-dimethylpyridin-3-yl)acetic acid] gave a pEC50 of 8.70. `Cc1nc(C)c([C@H](OC(C)(C)C)C(=O)O)c(N2CCC(C)(C)CC2)c1-c1ccc2c(c1)CCN(c1nc3ccc(F)cc3s1)C2` [Compound 8, (S)-2-(tert-butoxy)-2-(4-(4,4-dimethylpiperidin-1-yl)-5-(2-(6-fluorobenzo[d]thiazol-2-yl)-1,2,3,4-tetrahydroisoquinolin-6-yl)-2,6-dimethylpyridin-3-yl)acetic acid] gave a pEC50 of 8.30. `Cc1ccc2nc(N3CCc4cc(-c5c(C)nc(C)c([C@H](OC(C)(C)C)C(=O)O)c5N5CCC(C)(C)CC5)ccc4C3)sc2c1` [Compound 9, (S)-2-(tert-butoxy)-2-(4-(4,4-dimethylpiperidin-1-yl)-2,6-dimethyl-5-(2-(6-methylbenzo[d]thiazol-2-yl)-1,2,3,4-tetrahydroisoquinolin-6-yl)pyridin-3-yl)acetic acid] was tested, and the pEC50 was 8.10. `Cc1nc(C)c([C@H](OC(C)(C)C)C(=O)O)c(N2CCC(C)(C)CC2)c1-c1ccc2c(c1)CCN(c1nc3ncccc3s1)C2` [Compound 10, (S)-2-(tert-butoxy)-2-(4-(4,4-dimethylpiperidin-1-yl)-2,6-dimethyl-5-(2-(thiazolo[4,5-b]pyridin-2-yl)-1,2,3,4-tetrahydroisoquinolin-6-yl)pyridin-3-yl)acetic acid] showed a pEC50 of 8.70. With `Cc1nc(C)c([C@H](OC(C)(C)C)C(=O)O)c(N2CCC(C)(C)CC2)c1-c1ccc2c(c1)CCN(c1nc3cnccc3s1)C2` [Compound 11, (S)-2-(tert-butoxy)-2-(4-(4,4-dimethylpiperidin-1-yl)-2,6-dimethyl-5-(2-(thiazolo[4,5-c]pyridin-2-yl)-1,2,3,4-tetrahydroisoquinolin-6-yl)pyridin-3-yl)acetic acid] the pEC50 was 9.00. `COc1ccc2nc(N3CCc4cc(-c5c(C)nc(C)c([C@H](OC(C)(C)C)C(=O)O)c5N5CCC(C)(C)CC5)ccc4C3)sc2c1` [Compound 12, (S)-2-(tert-butoxy)-2-(4-(4,4-dimethylpiperidin-1-yl)-5-(2-(6-methoxybenzo[d]thiazol-2-yl)-1,2,3,4-tetrahydroisoquinolin-6-yl)-2,6-dimethylpyridin-3-yl)acetic acid] showed a pEC50 of 8.40. With `Cc1nc(C)c([C@H](OC(C)(C)C)C(=O)O)c(N2CCC(C)(C)CC2)c1-c1ccc2c(c1)CCN(c1nc3ccccc3s1)C2` [Compound 13, (S)-2-(5-(2-(benzo[d]thiazol-2-yl)-1,2,3,4-tetrahydroisoquinolin-6-yl)-4-(4,4-dimethylpiperidin-1-yl)-2,6-dimethylpyridin-3-yl)-2-(tert-butoxy)acetic acid] the pEC50 was 8.15. Work on `Cc1nc(C)c([C@H](OC(C)(C)C)C(=O)O)c(N2CCC(C)(C)CC2)c1-c1ccc2c(c1)CCN(c1ncnc3sccc13)C2` [Compound 14, (S)-2-(tert-butoxy)-2-(4-(4,4-dimethylpiperidin-1-yl)-2,6-dimethyl-5-(2-(thieno[2,3-d]pyrimidin-4-yl)-1,2,3,4-tetrahydroisoquinolin-6-yl)pyridin-3-yl)acetic acid] yielded a pEC50 of 8.70. Work on `Cc1nc(C)c([C@H](OC(C)(C)C)C(=O)O)c(N2CCC(C)(C)CC2)c1-c1ccc2c(c1)CCN(c1ncnc3c(C)csc13)C2` [Compound 15, (S)-2-(tert-butoxy)-2-(4-(4,4-dimethylpiperidin-1-yl)-2,6-dimethyl-5-(2-(7-methylthieno[3,2-d]pyrimidin-4-yl)-1,2,3,4-tetrahydroisoquinolin-6-yl)pyridin-3-yl)acetic acid] yielded a pEC50 of 8.70. For `Cc1nc(C)c([C@H](OC(C)(C)C)C(=O)O)c(N2CCC(C)(C)CC2)c1-c1ccc2c(c1)CCN(c1ncnc3c1cnn3C)C2` [Compound 16, (S)-2-(tert-butoxy)-2-(4-(4,4-dimethylpiperidin-1-yl)-2,6-dimethyl-5-(2-(1-methyl-1H-pyrazolo[3,4-d]pyrimidin-4-yl)-1,2,3,4-tetrahydroisoquinolin-6-yl)pyridin-3-yl)acetic acid], the pEC50 was 8.70. For `Cc1nc(C)c([C@H](OC(C)(C)C)C(=O)O)c(N2CCC(C)(C)CC2)c1-c1ccc2c(c1)CCN(c1nc3ccccc3n1C)C2` [Compound 17, (S)-2-(tert-butoxy)-2-(4-(4,4-dimethylpiperidin-1-yl)-2,6-dimethyl-5-(2-(1-methyl-1H-benzo[d]imidazol-2-yl)-1,2,3,4-tetrahydroisoquinolin-6-yl)pyridin-3-yl)acetic acid], the pEC50 was 7.66. `Cc1nc(C)c([C@H](OC(C)(C)C)C(=O)O)c(N2CCC(C)(C)CC2)c1-c1ccc2c(c1)CCN(c1noc3ccccc13)C2` [Compound 18, (S)-2-(5-(2-(benzo[d]isoxazol-3-yl)-1,2,3,4-tetrahydroisoquinolin-6-yl)-4-(4,4-dimethylpiperidin-1-yl)-2,6-dimethylpyridin-3-yl)-2-(tert-butoxy)acetic acid] was tested, and the pEC50 was 8.30. `Cc1nc(N2CCc3cc(-c4c(C)nc(C)c([C@H](OC(C)(C)C)C(=O)O)c4N4CCC(C)(C)CC4)ccc3C2)c2cnn(C)c2n1` [Compound 19, (S)-2-(tert-butoxy)-2-(5-(2-(1,6-dimethyl-1H-pyrazolo[3,4-d]pyrimidin-4-yl)-1,2,3,4-tetrahydroisoquinolin-6-yl)-4-(4,4-dimethylpiperidin-1-yl)-2,6-dimethylpyridin-3-yl)acetic acid] gave a pEC50 of 9.00. Work on `Cc1nc(C)c([C@H](OC(C)(C)C)C(=O)O)c(N2CCC(C)(C)CC2)c1-c1ccc2c(c1)CCN(c1ncnc3[nH]ccc13)C2` [Compound 20, (S)-2-(5-(2-(7H-pyrrolo[2,3-d]pyrimidin-4-yl)-1,2,3,4-tetrahydroisoquinolin-6-yl)-4-(4,4-dimethylpiperidin-1-yl)-2,6-dimethylpyridin-3-yl)-2-(tert-butoxy)acetic acid] yielded a pEC50 of 8.52. `Cc1nc(C)c([C@H](OC(C)(C)C)C(=O)O)c(N2CCC(C)(C)CC2)c1-c1ccc2c(c1)CCN(c1nc(O)c3[nH]cnc3n1)C2` [Compound 21, (S)-2-(tert-butoxy)-2-(4-(4,4-dimethylpiperidin-1-yl)-5-(2-(6-hydroxy-7H-purin-2-yl)-1,2,3,4-tetrahydroisoquinolin-6-yl)-2,6-dimethylpyridin-3-yl)acetic acid] gave a pEC50 of 5.22.
